The values that follow are results of earlier work, collected in patent US9566245B2, “Osmotic drug delivery system” (Supernus Pharmaceuticals, Inc., priority 2006, dated 2017).

The conditions of this series: treprostinil as the free acid.

`CCCCC[C@H](O)CC[C@@H]1[C@H]2Cc3cccc(OCC(=O)O)c3C[C@H]2C[C@H]1O` [treprostinil]: the Absolute oral bioavailability result is given as “less than 10%”.
